# Assay results taken from patent publication US20260265305A1, “POLYPEPTIDE DERIVATIVE FOR ORAL DELIVERY” (Hangzhou Sciwind Biosciences Co., Ltd., priority 2023, published 2026).
# Numbered stars: 1 amine (or outer) side, 2 acyl side, 3 side chain; on linkers, the order of the positions; unused ones are H or OH. Peptide text beside a SMILES is read from it. * marks the point of attachment. C20 diacid = O=C(O)CCCCCCCCCCCCCCCCCCC(=O)*; C18 diacid = O=C(O)CCCCCCCCCCCCCCCCC(=O)*; C16 diacid = O=C(O)CCCCCCCCCCCCCCC(=O)*; γGlu = O=C(O)[C@H](CCC(=O)[*:2])N[*:1]; Trx = NC[C@H]1CC[C@H](C(=O)O)CC1; AEEA = NCCOCCOCC(=O)O
# Columns and labels:
# amylin receptor (hAMY3R) = biological target: T1, amylin receptor (hAMY3R) (Homo sapiens, UniProt O60896+P30988); experiment: Amylin receptor agonism testing, CRE-luciferase assay in stably transfected CHO-K1/Ga15/AMY3 cells; type: cell-based; settings: relative to D1 as benchmark
# T1 construct: host or cells: CHO-K1/Ga15/AMY3 cells, further stably transfected with a CRE-luciferase plasmid
# T1 sequence (P30988 25-474): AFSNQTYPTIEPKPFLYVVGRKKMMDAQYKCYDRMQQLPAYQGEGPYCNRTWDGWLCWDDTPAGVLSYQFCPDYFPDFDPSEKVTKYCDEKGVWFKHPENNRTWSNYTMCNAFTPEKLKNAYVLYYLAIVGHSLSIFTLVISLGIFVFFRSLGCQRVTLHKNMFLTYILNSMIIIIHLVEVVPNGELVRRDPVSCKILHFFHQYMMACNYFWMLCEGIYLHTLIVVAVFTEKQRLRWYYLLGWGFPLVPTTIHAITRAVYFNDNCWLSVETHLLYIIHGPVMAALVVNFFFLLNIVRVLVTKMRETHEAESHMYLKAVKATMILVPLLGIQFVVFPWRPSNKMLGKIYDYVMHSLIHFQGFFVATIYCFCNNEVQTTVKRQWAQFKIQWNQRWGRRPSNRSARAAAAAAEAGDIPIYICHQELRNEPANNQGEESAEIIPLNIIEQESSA
# T1 sequence (O60896 24-148): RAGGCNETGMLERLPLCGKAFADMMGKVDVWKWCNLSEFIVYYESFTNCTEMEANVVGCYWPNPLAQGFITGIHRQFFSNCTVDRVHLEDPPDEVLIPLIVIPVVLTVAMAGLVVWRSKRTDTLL
# [1] = biological target: T2, calcitonin receptor (hCTR) (Homo sapiens, UniProt P30988); experiment: Calcitonin receptor agonism, CRE-luciferase assay in stably transfected CHO-K1/CALCR/Ga15 cells; type: cell-based; settings: for EC50: incubation of 24 hours, Table 4, read-out: EC50, activity against the calcitonin receptor in cells; for Fold change in activity against hCTR: relative to D1 as benchmark
# T2 construct: host or cells: CHO-K1/CALCR/Ga15 cells, further stably transfected with a CRE-luciferase plasmid
# T2 sequence (P30988 25-474): T1 sequence (P30988 25-474)
# [2] = Heat accelerated stability assay of polypeptide solutions (40° C., pH about 7.4), reversed phase chromatography; type: physicochemical; settings: 40° C.; for Concentration change on 26 d / Concentration change on 7 d: pH about 7.4, 1 mg/mL; for Concentration change on 26 d / Purity change on 26 d: Day 26; for Purity change on 7 d / Purity change on 26 d: reversed phase chromatography 214 nm; for Purity change on 7 d / Concentration change on 7 d: Day 7; for Purity change on 7 d: purity on 7 d − purity on 0 d; for Purity change on 26 d: purity on 26 d − purity on 0 d
# Description: A stability test chamber (BINDER GmbH), a 0.01 mg-readability balance (METTLER TOLEDO), a pH meter (METTLER TOLEDO), a biosafety cabinet (ESCO), T2G-II small-sized motor-driven capping machine (Changsha zhongya pharmaceutical equipment co. LTD), a high-speed refrigerated centrifuge (Eppendorf), a sterilizer cabinet (Shinva Medical), Agilent 1260 high-performance liquid chromatographer, and Sepax Bio-C18 4.6*250 mm 3 μm 200 Å reversed phase column were used.
# Reagents and consumables included: ultrapure water (18.2 MΩ, self-made), acetonitrile (HPLC grade), trifluoroacetic acid (HPLC grade), sodium dihydrogen phosphate (pharmaceutical grade, Hunan Jiudian Hongyang Pharmaceutical Co., Ltd), hydrochloric acid (pharmaceutical grade, Hunan Er-Kang Pharmaceutical Co., Ltd), sodium hydroxide (Analytical Reagent grade, Hushi®, Sinopharm Chemical Reagent Co., Ltd), vials, rubber stoppers, disposable syringes, and sterile filters.
# The lyophilized powder (1 mg/mL) of the polypeptide derivative prepared in accordance with the method of Example 1 was mixed with sodium dihydrogen phosphate (1.42 mg/mL) and dissolved in ultrapure water in the indicated mass-volume ratios. After adjusting pH to about 7.4 with hydrochloric acid/sodium hydroxide, the solution was filtered into a sterilized vial in a clean bench using a 0.22 μm sterile filter. The vial was then capped and placed into the stability test chamber at 40° C. Detections were made on Days 7 (7d) and 26 (26d), and during the assay, changes in the characteristics and properties of the polypeptide were observed and recorded. The sample was then centrifuged for 3 min at 10,000 rpm at 4° C., and the supernatant was transferred to a liquid phase sample vial for detecting the concentration and purity of the polypeptides using liquid phase chromatography described as below, wherein the concentration of the polypeptide=peak area/injection volume/extinction coefficient/60×flow rate, and the purity of the polypeptide=target peak area/total peak area×100%.
# Conditions of the reversed phase chromatography Flow rate: 1.0 ml/min; Autosampler temperature: 15° C.; Column temperature: 25° C.; Detection wavelengths: 280 nm and 214 nm; Mobile phase A: 100% H2O+0.05% TFA; Mobile phase B: 100% ACN; and Gradient of elution listed in Table 6: […]
SMILES,Fold change in activity against hAMY3R (amylin receptor (hAMY3R)),EC50 [1],Fold change in activity against hCTR [1],Concentration change on 26 d [2],Purity change on 7 d [2],Purity change on 26 d [2],Concentration change on 7 d [2]
CC(C)C[C@H](NC(=O)[C@H](CCCNC(=N)N)NC(=O)CNC(=O)[C@H](CC(C)C)NC(=O)[C@@H](NC(=O)[C@H](C)NC(=O)[C@@H](NC(=O)[C@H](CO)NC(=O)[C@H](CC(C)C)NC(=O)[C@H](CCC(N)=O)NC(=O)[C@H](CO)NC(=O)[C@H](C)NC(=O)CC[C@H](NC(=O)CCCCCCCCCCCCCCCCCCC(=O)O)C(=O)O)[C@@H](C)O)C(C)C)C(=O)N[C@@H](CO)C(=O)N[C@@H](CC(=O)O)C(=O)N[C@@H](CCC(=O)O)C(=O)N[C@@H](CC(C)C)C(=O)N[C@@H](Cc1c[nH]cn1)C(=O)N[C@@H](CCCNC(=N)N)C(=O)N[C@@H](CC(C)C)C(=O)N[C@@H](CCC(N)=O)C(=O)N[C@@H](CC(=O)O)C(=O)N[C@@H](Cc1ccc(O)cc1)C(=O)N1CCC[C@H]1C(=O)N[C@@H](CCCNC(=N)N)C(=O)N[C@H](C(=O)N[C@@H](CC(=O)O)C(=O)N[C@H](C(=O)NCC(=O)N[C@@H](CO)C(=O)NCC(=O)N[C@@H](CO)C(=O)N1CCC[C@H]1C(N)=O)C(C)C)[C@@H](C)O [M6] ({C20 diacid-γGlu}-ASQLSTAVLGRLSDELHRLQDYPRTDVGSGSP-NH2),2.118,0.028 nM,3.071,−1.865%,1.64%,No change,–
CC(C)C[C@H](NC(=O)[C@H](CCCNC(=N)N)NC(=O)CNC(=O)[C@H](CC(C)C)NC(=O)[C@@H](NC(=O)[C@H](C)NC(=O)[C@@H](NC(=O)[C@H](CO)NC(=O)[C@H](CC(C)C)NC(=O)[C@H](CCC(N)=O)NC(=O)[C@H](CO)NC(=O)[C@H](C)NC(=O)CC[C@H](NC(=O)CCCCCCCCCCCCCCCCC(=O)O)C(=O)O)[C@@H](C)O)C(C)C)C(=O)N[C@@H](CO)C(=O)N[C@@H](CC(=O)O)C(=O)N[C@@H](CCC(=O)O)C(=O)N[C@@H](CC(C)C)C(=O)N[C@@H](Cc1c[nH]cn1)C(=O)N[C@@H](CCCNC(=N)N)C(=O)N[C@@H](CC(C)C)C(=O)N[C@@H](CCC(N)=O)C(=O)N[C@@H](CC(=O)O)C(=O)N[C@@H](Cc1ccc(O)cc1)C(=O)N1CCC[C@H]1C(=O)N[C@@H](CCCNC(=N)N)C(=O)N[C@H](C(=O)N[C@@H](CC(=O)O)C(=O)N[C@H](C(=O)NCC(=O)N[C@@H](CO)C(=O)NCC(=O)N[C@@H](CO)C(=O)N1CCC[C@H]1C(N)=O)C(C)C)[C@@H](C)O [M8] ({C18 diacid-γGlu}-ASQLSTAVLGRLSDELHRLQDYPRTDVGSGSP-NH2),–,0.165 nM,–,−6.190%,No change,−3.3%,No change (concentration change of less than 1% (denoted as “no change”))
CC(C)C[C@H](NC(=O)[C@H](CCCNC(=N)N)NC(=O)CNC(=O)[C@H](CC(C)C)NC(=O)[C@@H](NC(=O)[C@H](C)NC(=O)[C@@H](NC(=O)[C@H](CO)NC(=O)[C@H](CC(C)C)NC(=O)[C@H](CCC(N)=O)NC(=O)[C@H](CO)NC(=O)[C@H](C)NC(=O)CC[C@H](NC(=O)CCCCCCCCCCCCCCC(=O)O)C(=O)O)[C@@H](C)O)C(C)C)C(=O)N[C@@H](CO)C(=O)N[C@@H](CC(=O)O)C(=O)N[C@@H](CCC(=O)O)C(=O)N[C@@H](CC(C)C)C(=O)N[C@@H](Cc1c[nH]cn1)C(=O)N[C@@H](CCCNC(=N)N)C(=O)N[C@@H](CC(C)C)C(=O)N[C@@H](CCC(N)=O)C(=O)N[C@@H](CC(=O)O)C(=O)N[C@@H](Cc1ccc(O)cc1)C(=O)N1CCC[C@H]1C(=O)N[C@@H](CCCNC(=N)N)C(=O)N[C@H](C(=O)N[C@@H](CC(=O)O)C(=O)N[C@H](C(=O)NCC(=O)N[C@@H](CO)C(=O)NCC(=O)N[C@@H](CO)C(=O)N1CCC[C@H]1C(N)=O)C(C)C)[C@@H](C)O [M9] ({C16 diacid-γGlu}-ASQLSTAVLGRLSDELHRLQDYPRTDVGSGSP-NH2),–,0.12 nM,–,−7.796%,−1.67%,−4.82%,−2.280%
CC(C)C[C@H](NC(=O)[C@H](CCCNC(=N)N)NC(=O)CNC(=O)[C@H](CC(C)C)NC(=O)[C@@H](NC(=O)[C@H](C)NC(=O)[C@@H](NC(=O)[C@H](CO)NC(=O)[C@H](CC(C)C)NC(=O)[C@H](CCC(N)=O)NC(=O)[C@H](CO)NC(=O)[C@H](C)NC(=O)[C@H](CC(=O)O)NC(=O)CCCCCCCCCCCCCCCCC(=O)O)[C@@H](C)O)C(C)C)C(=O)N[C@@H](CO)C(=O)N[C@@H](CC(=O)O)C(=O)N[C@@H](CCC(=O)O)C(=O)N[C@@H](CC(C)C)C(=O)N[C@@H](Cc1c[nH]cn1)C(=O)N[C@@H](CCCNC(=N)N)C(=O)N[C@@H](CC(C)C)C(=O)N[C@@H](CCC(N)=O)C(=O)N[C@@H](CC(=O)O)C(=O)N[C@@H](Cc1ccc(O)cc1)C(=O)N1CCC[C@H]1C(=O)N[C@@H](CCCNC(=N)N)C(=O)N[C@H](C(=O)N[C@@H](CC(=O)O)C(=O)N[C@H](C(=O)NCC(=O)N[C@@H](CO)C(=O)NCC(=O)N[C@@H](CO)C(=O)N1CCC[C@H]1C(N)=O)C(C)C)[C@@H](C)O [M13] ({C18 diacid}-DASQLSTAVLGRLSDELHRLQDYPRTDVGSGSP-NH2),–,0.085 nM,–,−5.520%,−1.15%,−3.76%,−1.895%
CC(C)C[C@H](NC(=O)[C@H](CCCNC(=N)N)NC(=O)CNC(=O)[C@H](CC(C)C)NC(=O)[C@@H](NC(=O)[C@H](C)NC(=O)[C@@H](NC(=O)[C@H](CO)NC(=O)[C@H](CC(C)C)NC(=O)[C@H](CCC(N)=O)NC(=O)[C@H](CO)NC(=O)[C@H](C)NC(=O)COCCOCCNC(=O)COCCOCCNC(=O)[C@H]1CC[C@H](CNC(=O)CCCCCCCCCCCCCCCCC(=O)O)CC1)[C@@H](C)O)C(C)C)C(=O)N[C@@H](CO)C(=O)N[C@@H](CC(=O)O)C(=O)N[C@@H](CCC(=O)O)C(=O)N[C@@H](CC(C)C)C(=O)N[C@@H](Cc1c[nH]cn1)C(=O)N[C@@H](CCCNC(=N)N)C(=O)N[C@@H](CC(C)C)C(=O)N[C@@H](CCC(N)=O)C(=O)N[C@@H](CC(=O)O)C(=O)N[C@@H](Cc1ccc(O)cc1)C(=O)N1CCC[C@H]1C(=O)N[C@@H](CCCNC(=N)N)C(=O)N[C@H](C(=O)N[C@@H](CC(=O)O)C(=O)N[C@H](C(=O)NCC(=O)N[C@@H](CO)C(=O)NCC(=O)N[C@@H](CO)C(=O)N1CCC[C@H]1C(N)=O)C(C)C)[C@@H](C)O [M28] ({C18 diacid-Trx-AEEA-AEEA}-ASQLSTAVLGRLSDELHRLQDYPRTDVGSGSP-NH2),18.000,–,0.966,–,–,–,–
